# Measurements published in publication PMC4674391 (Archives of toxicology, 2015).
# Where a name gives a salt, the structure may show the parent alone.
# Key:
# zfOatp1f1 [1] = type: in vitro ADME, zebrafish (Danio rerio)
# zfOatp1f4-1 [2] = type: in vitro ADME, zebrafish (Danio rerio)
# zfOatp1f2-1 [3] = type: in vitro ADME, zebrafish (Danio rerio)
# zfOatp2b1 = type: in vitro ADME, zebrafish (Danio rerio)
# zfOatp1f4-2 [4] = type: in vitro ADME, zebrafish (Danio rerio)
# zfOatp1d1 [5] = type: in vitro ADME, zebrafish (Danio rerio)
# OATPs = settings: cited from earlier work
# [6] = test system: Ser/Thr protein phosphatases (ser/thrPP); settings: cited from earlier work
# zfOatp1d1 [7] = type: in vitro ADME, zebrafish (Danio rerio); remark: listed apart in the source
# zfOatp1f3 [8] = type: in vitro ADME, zebrafish (Danio rerio)
# zfOatp1f2-2 [9] = type: in vitro ADME, zebrafish (Danio rerio)
# zfOatp1f1 [10] = type: in vitro ADME, zebrafish (Danio rerio); remark: listed apart in the source
# zfOatp1f2-1 [11] = type: in vitro ADME, zebrafish (Danio rerio); remark: listed apart in the source
# carp = settings: in vivo, po; cited from earlier work
# zfOatp4a1 = type: in vitro ADME, zebrafish (Danio rerio)
# zfOatp1f2-2 [12] = type: in vitro ADME, zebrafish (Danio rerio); remark: listed apart in the source
# zfOatp1f3 [13] = type: in vitro ADME, zebrafish (Danio rerio); remark: listed apart in the source
# zfOatp1f4-2 [14] = type: in vitro ADME, zebrafish (Danio rerio); remark: listed apart in the source
# zfOatp1f4-1 [15] = type: in vitro ADME, zebrafish (Danio rerio); remark: listed apart in the source
# [16] = uptake for up to 30 min, transfected HEK293 (Figure S1)
molecule,measurement,setting,value
"C[C@H](CCC(=O)NCCS(=O)(=O)O)[C@H]1CC[C@H]2[C@@H]3[C@H](O)C[C@@H]4C[C@H](O)CC[C@]4(C)[C@H]3C[C@H](O)[C@]12C [TCA, taurocholic acid]",transport of Oatp substrate (uptake vs empty vector cells),zfOatp1f1 [1],did not transport any of the three substrates
same,transport of Oatp substrate (uptake vs empty vector cells),zfOatp1f4-1 [2],none of the other zfOatps transported
same,transport of Oatp substrate (uptake vs empty vector cells),zfOatp1f2-1 [3],did not transport any of the three substrates
same,transport of Oatp substrate (uptake vs empty vector cells),zfOatp2b1,did not transport any of the three substrates
same,transport of Oatp substrate (uptake vs empty vector cells),zfOatp1f4-2 [4],none of the other zfOatps transported
same,transport of Oatp substrate (uptake vs empty vector cells),zfOatp1d1 [5],transported
Microcystin-RR [MC-RR],MC congener transport by OATPs,OATPs,lacked transport
same,inhibition of ser/thrPP activities,[6],approximately equimolar concentrations
same,MC congener transport (screen),zfOatp1d1 [7],transported all tested MC-congeners
same,time after which nearly linear uptake plateaus,zfOatp1d1 [7],12 h
same,MC congener transport (screen),zfOatp1f3 [8],did not transport any of the four MC-congeners tested
same,MC congener transport (screen),zfOatp1f2-2 [9],did not transport any of the four MC-congeners tested
same,MC congener transport (screen),zfOatp1f1 [10],absence of MC transport
Microcystin-LW [MC-LW],MC congener transport by OATPs,OATPs,transport was demonstrated
same,inhibition of ser/thrPP activities,[6],approximately equimolar concentrations
same,MC congener transport (screen),zfOatp1d1 [7],transported all tested MC-congeners
same,time within which transport occurred,zfOatp1d1 [7],≤ 1 h
same,MC congener transport (screen),zfOatp1f3 [8],did not transport any of the four MC-congeners tested
same,MC congener transport (screen),zfOatp1f2-2 [9],did not transport any of the four MC-congeners tested
same,MC congener transport (screen),zfOatp1f2-1 [11],did take up
same,"time dependent MC uptake, relative speed",zfOatp1f2-1 [11],slower than that observed for zfOatp1d1
same,MC congener transport (screen),zfOatp1f1 [10],absence of MC transport
Microcystin-LR [MC-LR],MC-LR in brain and muscle tissue,carp,detectable
same,pathological changes in hepatopancreas and kidney,carp,time-dependent pathological changes
same,MC congener transport by OATPs,OATPs,comparably minor extent
same,inhibition of ser/thrPP activities,[6],approximately equimolar concentrations
same,MC congener transport (screen),zfOatp1d1 [7],transported all tested MC-congeners
same,concentration dependent uptake (saturability),zfOatp1d1 [7],saturable
same,time up to which uptake is linear,zfOatp1d1 [7],up to 6 h
same,MC congener transport (screen),zfOatp1f3 [8],did not transport any of the four MC-congeners tested
same,MC congener transport (screen),zfOatp1f2-2 [9],did not transport any of the four MC-congeners tested
same,MC congener transport (screen),zfOatp1f2-1 [11],did take up
same,"time dependent MC uptake, relative speed",zfOatp1f2-1 [11],much slower than MC-LW and MC-LF
same,MC congener transport (screen),zfOatp1f1 [10],absence of MC transport
"C[C@]12CC[C@@H]3c4ccc(OS(=O)(=O)O)cc4CC[C@H]3[C@@H]1CCC2=O [E3S, estrone sulfate ammonium salt]","[3H] E3S transport, prolonged uptake",zfOatp1f1 [1]; [16],no [^3H] E3S transport was observed
same,"[3H] E3S transport, prolonged uptake",zfOatp1f2-1 [3]; [16],no [^3H] E3S transport was observed
"CN(Cc1cnc2nc(N)nc(N)c2n1)c1ccc(C(=O)N[C@@H](CCC(=O)O)C(=O)O)cc1 [MTX, methotrexate disodium salt]",transport of Oatp substrate (uptake vs empty vector cells),zfOatp1f1 [1],did not transport any of the three substrates
same,transport of Oatp substrate (uptake vs empty vector cells),zfOatp4a1,did not transport any of the three substrates
same,transport of Oatp substrate (uptake vs empty vector cells),zfOatp1f4-1 [2],none of the other zfOatps transported
same,transport of Oatp substrate (uptake vs empty vector cells),zfOatp1f2-2 [12],none of the other zfOatps transported
same,transport of Oatp substrate (uptake vs empty vector cells),zfOatp1f2-1 [3],did not transport any of the three substrates
same,transport of Oatp substrate (uptake vs empty vector cells),zfOatp1f3 [13],none of the other zfOatps transported
same,transport of Oatp substrate (uptake vs empty vector cells),zfOatp2b1,did not transport any of the three substrates
same,transport of Oatp substrate (uptake vs empty vector cells),zfOatp1f4-2 [4],none of the other zfOatps transported
same,transport of Oatp substrate (uptake vs empty vector cells),zfOatp1d1 [5],transported
Microcystin-LF [MC-LF],MC congener transport by OATPs,OATPs,transport was demonstrated
same,inhibition of ser/thrPP activities,[6],approximately equimolar concentrations
same,MC congener transport (screen),zfOatp1f4-2 [14],transported
same,"time dependent MC uptake, relative speed",zfOatp1f4-2 [14],Comparable transport
same,MC congener transport (screen),zfOatp1d1 [7],transported all tested MC-congeners
same,"affinity of zfOatp1d1 (Km), MC-LF compared to MC-LR",zfOatp1d1 [7],2 fold
same,concentration dependent uptake (saturability),zfOatp1d1 [7],saturable
same,"relative Vmax (uptake velocity), MC-LF versus MC-LR",zfOatp1d1 [7],6 fold
same,time within which transport occurred,zfOatp1d1 [7],≤ 1 h
same,MC congener transport (screen),zfOatp1f3 [8],did not transport any of the four MC-congeners tested
same,MC congener transport (screen),zfOatp1f2-2 [9],did not transport any of the four MC-congeners tested
same,MC congener transport (screen),zfOatp1f4-1 [15],transported
same,"time dependent MC uptake, relative speed",zfOatp1f4-1 [15],Comparable transport
same,MC congener transport (screen),zfOatp1f2-1 [11],did take up
same,"time dependent MC uptake, relative speed",zfOatp1f2-1 [11],slower than that observed for zfOatp1d1
same,MC congener transport (screen),zfOatp1f1 [10],absence of MC transport
